Reference: patent US20160137639A1, “TRIAZOLE-ISOXAZOLE COMPOUND AND MEDICAL USE THEREOF” (JAPAN TOBACCO INC., priority 2012, published 2016)
pEC50: −log10 of the molar value. Like-named read-outs stand apart in the source and are kept apart here.

Columns and labels:
[1] = biological target: T1, human RORγ (Homo sapiens, UniProt P51449); assay: Luciferase reporter gene assay of inhibitory effect against RORγ transcriptional activity (GAL4-hRORγ plasmid in CHO cells); type: cell-based; conditions: for EC50: read-out: LUC EC50 (μM) hRORg; for pEC50: read-out: LUC EC50 hRORg
T1 construct: human, NM_005060.3 and from Ser253 to Lys518; expressed in transfected cells; host or cells: CHO cells (transient co-transfection with pG5-Luc reporter)
T1 sequence (P51449 253-518): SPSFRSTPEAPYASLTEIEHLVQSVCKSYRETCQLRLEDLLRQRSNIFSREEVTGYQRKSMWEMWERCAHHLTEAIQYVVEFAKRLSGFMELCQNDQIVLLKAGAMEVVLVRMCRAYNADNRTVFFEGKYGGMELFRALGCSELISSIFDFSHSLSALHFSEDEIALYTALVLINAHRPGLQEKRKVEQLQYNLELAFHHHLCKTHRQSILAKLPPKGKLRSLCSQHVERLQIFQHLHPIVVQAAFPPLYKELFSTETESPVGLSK

[2] = biological target: T2, mouse RORγ (Mus musculus, UniProt P51450); assay: Luciferase reporter gene assay of inhibitory effect against RORγ transcriptional activity (GAL4-mRORγ plasmid in CHO cells); type: cell-based; conditions: for EC50: read-out: LUC EC50 (μM) mRORg; for pEC50: read-out: LUC EC50 mRORg
T2 construct: mouse, NM_011281.2 and from Ile251 to Lys516; expressed in transfected cells; host or cells: CHO cells (transient co-transfection with pG5-Luc reporter)
T2 sequence (P51450 251-516): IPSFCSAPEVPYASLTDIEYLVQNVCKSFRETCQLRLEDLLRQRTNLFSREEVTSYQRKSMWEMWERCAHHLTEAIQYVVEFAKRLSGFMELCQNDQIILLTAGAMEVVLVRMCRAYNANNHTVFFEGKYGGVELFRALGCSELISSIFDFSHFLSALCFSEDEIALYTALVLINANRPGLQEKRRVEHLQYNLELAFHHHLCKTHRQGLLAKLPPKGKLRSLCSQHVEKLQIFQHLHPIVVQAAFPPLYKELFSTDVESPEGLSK
Outline: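 CHO cells transiently co-transfected with GAL4-mouse RORγ LBD (Ile251–Lys516) and GAL4-dependent luciferase reporter; eight compound concentrations, 0.1% DMSO, 2 days at 37 °C. Luminescence as %-of-vehicle control; EC50 by curve fit, cytotoxic concentrations excluded.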

C=CC[C@H](CC(=O)Nc1ccc(C)cc1C)c1nnc(CCCC(C)(C)C)n1C1CC1 [Example F-381]
EC50 [1]: > 3 µM
EC50 [2]: < 3 µM

CC(C)CCc1nnc(CCC(=O)Nc2cccc3ccccc23)n1C1CC1 [Example F-81]
EC50 [1]: < 3 µM
EC50 [2]: < 3 µM

CNC(=O)C(C)(C)C[C@H]1C[C@@H](c2onc([C@@H](CCC(=O)O)CC(=O)Nc3ccc(C)cc3Cl)c2C2CC2)C1 [Example F-728]
pEC50 [1]: > 5.52
pEC50 [2]: > 5.52

CC(C)CCc1nnc(CCC(=O)NC[C@H](O)c2ccccc2)n1C1CC1 [Example F-103]
EC50 [1]: > 3 µM
EC50 [2]: > 3 µM

CNC(=O)CCC(CC(=O)Nc1ccc(C)cc1C)c1nnc(CCCC(C)C)n1C1CC1 (racemic) [Example F-285]
EC50 [1]: > 3 µM
EC50 [2]: < 3 µM

Cc1ccc(NC(=O)CC(CC(=O)OC(C)(C)C)c2nnc([C@H]3C[C@@H](CC(C)C)C3)n2C2CC2)c(C)c1 (mixture of isomers) [Example F-498]
pEC50 [1]: > 5.52
pEC50 [2]: > 5.52

COc1cc(C)c(Cl)cc1CNC(=O)CCc1nnc(CCC(C)C)n1C1CC1 [Example F-204]
EC50 [1]: > 3 µM
EC50 [2]: > 3 µM

Cc1ccc(NC(=O)CC(Cc2nccs2)c2nnc([C@H]3C[C@@H](CC(C)C)C3)n2C2CC2)c(C)c1 (mixture of isomers) [Example F-439]
EC50 [1]: < 3 µM
EC50 [2]: < 3 µM

C#CCC(CC(=O)Nc1ccc(C)cc1C)c1nnc(CCCC(C)(C)C)n1C1CC1 (racemic) [Example F-437]
EC50 [1]: < 3 µM
EC50 [2]: < 3 µM

Cc1c(Cl)cccc1NC(=O)CCc1nnc(CCN2CCCCC2=O)n1C1CC1 [Example F-187]
EC50 [1]: > 3 µM
EC50 [2]: > 3 µM

O=C(CCc1nnc(C2Cc3ccccc3C2)n1C1CC1)Nc1cccc2ccccc12 [Example F-4]
EC50 [1]: < 3 µM
EC50 [2]: < 3 µM

Cc1ccc(NC(=O)C[C@H](CCC(=O)O)c2noc(-c3cc(CC(C)C)nn3C)c2C2CC2)c(Cl)c1 [Example E-25]
EC50 [1]: > 3 µM
EC50 [2]: < 3 µM

COc1ccc(NC(=O)CCc2nnc(CCC(C)C)n2C2CC2)c(C)c1 [Example F-82]
EC50 [1]: > 3 µM
EC50 [2]: > 3 µM

Cc1ccc(NC(=O)C[C@H](CCC(=O)O)c2noc(-c3cc(C4C(C)(C)C4(C)C)on3)c2C2CC2)c(Cl)c1 [Example E-44]
EC50 [1]: < 3 µM
EC50 [2]: < 3 µM

CC(=O)NCCCC(CC(=O)Nc1ccc(C)cc1C)c1nnc(CCCC(C)C)n1C1CC1 (racemic) [Example F-287]
EC50 [1]: > 3 µM
EC50 [2]: > 3 µM

Cc1ccc(NC(=O)CC(Cc2cc(O)no2)c2nnc([C@H]3C[C@@H](CC(C)C)C3)n2C2CC2)c(C)c1 (mixture of isomers) [Example F-450]
EC50 [1]: < 3 µM
EC50 [2]: < 3 µM

CCOC(=O)C(CC(=O)Nc1cccc(Cl)c1C)c1nnc(CCC(C)C)n1C1CC1 (racemic) [Example F-159]
EC50 [1]: > 3 µM
EC50 [2]: > 3 µM

CC(C)(C)C(F)(F)c1cc(-c2onc([C@@H](CCC(=O)O)CC(=O)Nc3ccc(Cl)cc3F)c2C2CC2)no1 [Example E-77]
pEC50 [1]: > 5.52
pEC50 [2]: > 5.52

Cc1c(Cl)cccc1NC(=O)CCc1nnc(CCC2CCCN(C(=O)OC(C)(C)C)C2)n1C1CC1 (racemic) [Example F-186]
EC50 [1]: < 3 µM
EC50 [2]: < 3 µM

Cc1ccc(NC(=O)[C@H]2CN(S(=O)(=O)C(F)(F)F)C[C@@H]2c2nnc(CCCC(C)(C)C)n2C2CC2)c(C)c1 (racemic) [Example F-398]
EC50 [1]: < 3 µM
EC50 [2]: < 3 µM

CC(=O)N1C[C@H](C(=O)Nc2ccc(C)cc2C)[C@@H](c2nnc([C@H]3C[C@H](OC(C)C)C3)n2C2CC2)C1 (racemic) [Example F-329]
EC50 [1]: > 3 µM
EC50 [2]: > 3 µM

Cc1ccc(NC(=O)CCc2nnc(CCC3CCCCC3)n2C2CCC2)c(C)c1 [Example F-112]
EC50 [1]: > 3 µM
EC50 [2]: < 3 µM

CCn1c(CCC(=O)Nc2ccc(C)cc2C)nnc1CCC1CCCC1 [Example F-48]
EC50 [1]: > 3 µM
EC50 [2]: < 3 µM

Cc1ccc(NC(=O)CCc2nnc(CCC(C)C)n2C2CC2)cc1 [Example F-66]
EC50 [1]: > 3 µM
EC50 [2]: > 3 µM

Cc1ccc(NC(=O)CC(CC(=O)N(C)C)c2nnc(CCCC(C)C)n2C2CC2)c(C)c1 (racemic) [Example F-266]
EC50 [1]: < 3 µM
EC50 [2]: < 3 µM

CC(C)CCc1nnc(CCC(=O)N[C@@H](C)c2ccccc2)n1C1CC1 [Example F-62]
EC50 [1]: > 3 µM
EC50 [2]: > 3 µM

Cc1c(Cl)cccc1NC(=O)CCc1nnc(C2CC(C)C2)n1C1CC1 (mixture of isomers) [Example F-168]
EC50 [1]: > 3 µM
EC50 [2]: < 3 µM

CCn1c(CCC(=O)NCc2ccccc2)nnc1CCC1CCCCC1 [Example F-45]
EC50 [1]: > 3 µM
EC50 [2]: > 3 µM

C=CCC(CC(=O)Nc1cccc(Cl)c1C)c1nnc(CCC(C)C)n1C1CC1 (racemic) [Example F-193]
EC50 [1]: < 3 µM
EC50 [2]: < 3 µM

Cc1cccc(C)c1NC(=O)CCc1nnc(CCC(C)C)n1C1CC1 [Example F-70]
EC50 [1]: > 3 µM
EC50 [2]: > 3 µM

COc1cccc(CC(CC(=O)Nc2ccc(C)cc2C)c2nnc([C@H]3C[C@@H](CC(C)C)C3)n2C2CC2)n1 (mixture of isomers) [Example F-504]
pEC50 [1]: > 5.52
pEC50 [2]: > 5.52

Cc1ccc(NC(=O)C[C@H](CCC(=O)O)c2noc(-c3cc(CC(C)C)on3)c2C2CC2)c(F)c1 [Example E-03]
EC50 [1]: < 3 µM
EC50 [2]: < 3 µM

Cc1ccc(NC(=O)CCc2nnc(CO)n2C2CC2)c(C)c1 [Example F-96]
EC50 [1]: > 3 µM
EC50 [2]: > 3 µM

Cc1ccc(Cl)cc1NC(=O)CCc1nnc(CCC(C)C)n1C1CC1 [Example F-131]
EC50 [1]: > 3 µM
EC50 [2]: > 3 µM

CC(=O)N1C[C@@H](C(=O)Nc2ccc(C)cc2C)[C@H](c2nnc(CCCC(C)(C)C)n2C2CC2)C1 [Example F-339]
EC50 [1]: > 3 µM
EC50 [2]: > 3 µM

Cc1ccc(NC(=O)C2CN(CC(=O)O)CC2c2noc([C@H]3C[C@@H](CC(C)(C)C)C3)c2C2CC2)c(Cl)c1 (stereo partly drawn) [Example F-687]
pEC50 [1]: > 5.52
pEC50 [2]: > 5.52

CCn1c(CCC(=O)Nc2cccc3ccccc23)nnc1CCc1ccccc1 [Example F-12]
EC50 [1]: < 3 µM
EC50 [2]: < 3 µM

CC(=O)N1C[C@@H](C(=O)Nc2ccc(C)cc2C)[C@H](c2nnc(CCC3CCCCC3)n2C2CC2)C1 [Example F-375]
EC50 [1]: > 3 µM
EC50 [2]: > 3 µM

Cc1c(Cl)cccc1NC(=O)CCc1nnc(CC(C)C)n1C1CC1 [Example F-107]
EC50 [1]: > 3 µM
EC50 [2]: > 3 µM

Cc1ccc(NC(=O)C[C@H](CCC(=O)O)c2onc([C@H]3C[C@@H](CC(C)(C)C)C3)c2C2CC2)c(Cl)c1 [Example F-715, (S)-5-(2-Chloro-4-methyl-phenylcarbamoyl)-4-{4-cyclopropyl-3-[3-(2,2-dimethyl-propyl)-cyclobutyl]-isoxazol-5-yl}-pentanoic acid]
pEC50 [1]: > 5.52
pEC50 [2]: > 5.52

CC(=O)N1C[C@H](C(=O)Nc2ccc(C)cc2C)[C@@H](c2nnc(C3CC4(CCCCC4)C3)n2C2CC2)C1 (racemic) [Example F-452]
EC50 [1]: < 3 µM
EC50 [2]: < 3 µM

Cc1ccc(NC(=O)CC(CCO)c2nnc(CCC3CCCCC3)n2C2CC2)c(C)c1 (racemic) [Example F-248]
EC50 [1]: < 3 µM
EC50 [2]: < 3 µM

Cc1ccc(NC(=O)[C@H]2CC(N(C)C)C[C@@H]2c2nnc([C@H]3C[C@@H](CC(C)C)C3)n2C2CC2)c(C)c1 (single isomer, unassigned) [Example F-534]
pEC50 [1]: > 5.52
pEC50 [2]: > 5.52

CCn1c(CCC(=O)Nc2ccc(Cl)cc2Cl)nnc1C1Cc2ccccc2C1 [Example F-31]
EC50 [1]: > 3 µM
EC50 [2]: > 3 µM

Cc1cc(CO)ccc1NC(=O)CCc1nnc(CCC(C)C)n1C1CC1 [Example F-88]
EC50 [1]: > 3 µM
EC50 [2]: > 3 µM

CCn1c(CCC(=O)Nc2cc(C)cc(C)c2)nnc1CCC(C)C [Example F-50]
EC50 [1]: > 3 µM
EC50 [2]: > 3 µM

Cc1ccc(NC(=O)CC(Cc2cccc(=O)[nH]2)c2nnc([C@H]3C[C@@H](CC(C)C)C3)n2C2CC2)c(C)c1 (mixture of isomers) [Example F-505]
pEC50 [1]: > 5.52
pEC50 [2]: < 5.52

Cc1ccc(NC(=O)CC(Cc2ccccn2)c2nnc([C@H]3C[C@@H](CC(C)C)C3)n2C2CC2)c(C)c1 (mixture of isomers) [Example F-422]
EC50 [1]: < 3 µM
EC50 [2]: < 3 µM

CCn1c(CCC2CCCCC2)nnc1[C@H]1C[C@@H]1C(=O)Nc1cccc2ccccc12 (racemic) [Example F-36]
EC50 [1]: > 3 µM
EC50 [2]: > 3 µM

Cc1ccc(NC(=O)[C@H]2CN(C)CC[C@@H]2c2nnc([C@H]3C[C@@H](CC(C)C)C3)n2C2CC2)c(C)c1 (racemic) [Example F-583]
pEC50 [1]: > 5.52
pEC50 [2]: > 5.52

Cc1ccc(NC(=O)C[C@H](CCC(=O)O)c2noc3c2CCCC3CCC(C)C)c(Cl)c1 (single isomer, unassigned) [Example F-698]
pEC50 [1]: > 5.52
pEC50 [2]: > 5.52
